Measured values taken from ChEMBL document CHEMBL1681699 (Bioorg Med Chem, 2011).

How the values were obtained:
Blood [1] = experiment: Biodistribution in Sprague-Dawley rat blood at 3.7 x 10^3 to 5.55 x 10^3 GBq, iv after 60 mins; type: ADME, organism-based; settings: in vivo, 1 h
Plasma [2] = experiment: Metabolic stability in Sprague-Dawley rat plasma assessed as 4-(1-Methyl-4-pyridin-4-yl-1H-pyrazol-3-yl)-phenol remaining after 40 mins; type: ADME, cell-free
Liver [3] = experiment: Biodistribution in Sprague-Dawley rat liver at 3.7 x 10^3 to 5.55 x 10^3 GBq, iv after 5 mins; type: ADME, organism-based; settings: in vivo
Cortex [4] = experiment: Biodistribution in Sprague-Dawley rat cortex at 3.7 x 10^3 to 5.55 x 10^3 GBq, iv after 60 mins; type: ADME, organism-based; settings: in vivo, 1 h
Testes [5] = experiment: Biodistribution in Sprague-Dawley rat testes at 3.7 x 10^3 to 5.55 x 10^3 GBq, iv after 60 mins; type: ADME, organism-based, Testis; settings: in vivo, 1 h
Heart [6] = experiment: Biodistribution in Sprague-Dawley rat heart at 3.7 x 10^3 to 5.55 x 10^3 GBq, iv after 60 mins; type: ADME, organism-based; settings: in vivo, 1 h
[7] = Metabolic stability in Sprague-Dawley rat brain assessed as radioactive compound remaining after 2 mins; type: ADME, tissue-based; settings: read-out: Stability
Cortex [8] = experiment: Biodistribution in Sprague-Dawley rat cortex at 3.7 x 10^3 to 5.55 x 10'3 GBq, iv after 30 mins; type: ADME, organism-based; settings: in vivo, 0.5 h
Brain [9] = experiment: Metabolic stability in Sprague-Dawley rat brain assessed as 4-(1-Methyl-4-pyridin-4-yl-1H-pyrazol-3-yl)-phenol remaining after 40 mins; type: ADME, tissue-based
[10] = Metabolic stability in Sprague-Dawley rat plasma assessed as radioactive compound remaining after 20 mins; type: ADME, cell-free; settings: read-out: Stability
Plasma [11] = experiment: Metabolic stability in Sprague-Dawley rat plasma assessed as compound remaining retention time administered intravenously measured after 60 mins postinjection; type: ADME, organism-based; settings: in vivo, iv, 1 h
[12] = Biodistribution in Sprague-Dawley rat fat at 3.7 x 10^3 to 5.55 x 10'3 GBq, iv after 30 mins; type: ADME, organism-based, Adipose tissue; settings: in vivo, 0.5 h
Muscle tissue [13] = experiment: Biodistribution in Sprague-Dawley rat muscle at 3.7 x 10^3 to 5.55 x 10^3 GBq, iv after 5 mins; type: ADME, organism-based; settings: in vivo
Cortex [14] = experiment: Biodistribution in Sprague-Dawley rat cortex at 3.7 x 10^3 to 5.55 x 10^3 GBq, iv after 5 mins; type: ADME, organism-based; settings: in vivo
[15] = Biodistribution in Sprague-Dawley rat fat at 3.7 x 10^3 to 5.55 x 10^3 GBq, iv after 5 mins; type: ADME, organism-based, Adipose tissue; settings: in vivo
Cerebellum [16] = experiment: Biodistribution in Sprague-Dawley rat cerebellum at 3.7 x 10'3 to 5.55 x 10^3 GBq, iv after 60 mins; type: ADME, organism-based; settings: in vivo, 1 h
Cerebellum [17] = experiment: Biodistribution in Sprague-Dawley rat cerebellum at 3.7 x 10'3 to 5.55 x 10'3 GBq, iv after 30 mins; type: ADME, organism-based; settings: in vivo, 0.5 h
[18] = Biodistribution in Sprague-Dawley rat hippocampus at 3.7 x 10^3 to 5.55 x 10^3 GBq, iv after 60 mins; type: ADME, organism-based; settings: in vivo, 1 h
Brain [19] = experiment: Metabolic stability in Sprague-Dawley rat brain assessed as 4-(1-Methyl-4-pyridin-4-yl-1H-pyrazol-3-yl)-phenol remaining after 60 mins; type: ADME, tissue-based
Kidney [20] = experiment: Biodistribution in Sprague-Dawley rat kidney at 3.7 x 10^3 to 5.55 x 10'3 GBq, iv after 30 mins; type: ADME, organism-based; settings: in vivo, 0.5 h
Testes [21] = experiment: Biodistribution in Sprague-Dawley rat testes at 3.7 x 10^3 to 5.55 x 10'3 GBq, iv after 30 mins; type: ADME, organism-based, Testis; settings: in vivo, 0.5 h
Heart [22] = experiment: Biodistribution in Sprague-Dawley rat heart at 3.7 x 10^3 to 5.55 x 10'3 GBq, iv after 30 mins; type: ADME, organism-based; settings: in vivo, 0.5 h
Plasma [23] = experiment: Metabolic stability in Sprague-Dawley rat plasma assessed as 4-(1-Methyl-4-pyridin-4-yl-1H-pyrazol-3-yl)-phenol remaining retention time administered intravenously measured after 60 mins postinjection; type: ADME, organism-based; settings: in vivo, iv
Heart [24] = experiment: Biodistribution in Sprague-Dawley rat heart at 3.7 x 10^3 to 5.55 x 10^3 GBq, iv after 5 mins; type: ADME, organism-based; settings: in vivo
[25] = Biodistribution in Sprague-Dawley rat fat at 3.7 x 10^3 to 5.55 x 10^3 GBq, iv after 60 mins; type: ADME, organism-based, Adipose tissue; settings: in vivo, 1 h
Lung [26] = experiment: Biodistribution in Sprague-Dawley rat lung at 3.7 x 10^3 to 5.55 x 10'3 GBq, iv after 30 mins; type: ADME, organism-based; settings: in vivo, 0.5 h
[27] = Metabolic stability in Sprague-Dawley rat plasma assessed as radioactive compound remaining after 60 mins; type: ADME, cell-free; settings: read-out: Stability
Testes [28] = experiment: Biodistribution in Sprague-Dawley rat testes at 3.7 x 10^3 to 5.55 x 10^3 GBq, iv after 5 mins; type: ADME, organism-based, Testis; settings: in vivo
Striatum [29] = experiment: Biodistribution in Sprague-Dawley rat striatum at 3.7 x 10^3 to 5.55 x 10'3 GBq, iv after 30 mins; type: ADME, organism-based; settings: in vivo, 0.5 h
Blood [30] = experiment: Biodistribution in Sprague-Dawley rat blood at 3.7 x 10^3 to 5.55 x 10'3 GBq, iv after 30 mins; type: ADME, organism-based; settings: in vivo, 0.5 h
Brain [31] = experiment: Biodistribution in Sprague-Dawley rat brain at 3.7 x 10^3 to 5.55 x 10'3 GBq, iv after 30 mins; type: ADME, organism-based; settings: in vivo, 0.5 h
[32] = Metabolic stability in Sprague-Dawley rat brain assessed as radioactive compound remaining after 20 mins; type: ADME, tissue-based; settings: read-out: Stability
[33] = Metabolic stability in Sprague-Dawley rat brain assessed as radioactive compound remaining after 60 mins; type: ADME, tissue-based; settings: read-out: Stability
Brain [34] = experiment: Metabolic stability in Sprague-Dawley rat brain assessed as 4-(1-Methyl-4-pyridin-4-yl-1H-pyrazol-3-yl)-phenol remaining after 20 mins; type: ADME, tissue-based
Kidney [35] = experiment: Biodistribution in Sprague-Dawley rat kidney at 3.7 x 10^3 to 5.55 x 10^3 GBq, iv after 5 mins; type: ADME, organism-based; settings: in vivo
Plasma [36] = experiment: Metabolic stability in Sprague-Dawley rat plasma assessed as 4-(1-Methyl-4-pyridin-4-yl-1H-pyrazol-3-yl)-phenol remaining after 2 mins; type: ADME, cell-free
Brain [37] = experiment: Biodistribution in Sprague-Dawley rat brain at 3.7 x 10^3 to 5.55 x 10^3 GBq, iv after 60 mins; type: ADME, organism-based; settings: in vivo, 1 h
[38] = Metabolic stability in Sprague-Dawley rat plasma assessed as radioactive compound remaining after 2 mins; type: ADME, cell-free; settings: read-out: Stability
Lung [39] = experiment: Biodistribution in Sprague-Dawley rat lung at 3.7 x 10^3 to 5.55 x 10^3 GBq, iv after 5 mins; type: ADME, organism-based; settings: in vivo
Striatum [40] = experiment: Biodistribution in Sprague-Dawley rat striatum at 3.7 x 10^3 to 5.55 x 10^3 GBq, iv after 5 mins; type: ADME, organism-based; settings: in vivo
Brain [41] = experiment: Biodistribution in Sprague-Dawley rat brain at 3.7 x 10^3 to 5.55 x 10^3 GBq, iv after 5 mins; type: ADME, organism-based; settings: in vivo
Muscle tissue [42] = experiment: Biodistribution in Sprague-Dawley rat muscle at 3.7 x 10^3 to 5.55 x 10^3 GBq, iv after 60 mins; type: ADME, organism-based; settings: in vivo, 1 h
Striatum [43] = experiment: Biodistribution in Sprague-Dawley rat striatum at 3.7 x 10^3 to 5.55 x 10^3 GBq, iv after 60 mins; type: ADME, organism-based; settings: in vivo, 1 h
[44] = Biodistribution in Sprague-Dawley rat hippocampus at 3.7 x 10^3 to 5.55 x 10^3 GBq, iv after 5 mins; type: ADME, organism-based; settings: in vivo
Blood [45] = experiment: Biodistribution in Sprague-Dawley rat blood at 3.7 x 10^3 to 5.55 x 10^3 GBq, iv after 5 mins; type: ADME, organism-based; settings: in vivo
Brain [46] = experiment: Metabolic stability in Sprague-Dawley rat brain assessed as 4-(1-Methyl-4-pyridin-4-yl-1H-pyrazol-3-yl)-phenol remaining after 2 mins; type: ADME, tissue-based
Plasma [47] = experiment: Metabolic stability in Sprague-Dawley rat plasma assessed as 4-(1-Methyl-4-pyridin-4-yl-1H-pyrazol-3-yl)-phenol remaining after 20 mins; type: ADME, cell-free
Plasma [48] = experiment: Metabolic stability in Sprague-Dawley rat plasma assessed as 4-(1-Methyl-4-pyridin-4-yl-1H-pyrazol-3-yl)-phenol remaining after 60 mins; type: ADME, cell-free
Cerebellum [49] = experiment: Biodistribution in Sprague-Dawley rat cerebellum at 3.7 x 10'3 to 5.55 x 10^3 GBq, iv after 5 mins; type: ADME, organism-based; settings: in vivo
Liver [50] = experiment: Biodistribution in Sprague-Dawley rat liver at 3.7 x 10^3 to 5.55 x 10^3 GBq, iv after 60 mins; type: ADME, organism-based; settings: in vivo, 1 h
Muscle tissue [51] = experiment: Biodistribution in Sprague-Dawley rat muscle at 3.7 x 10^3 to 5.55 x 10'3 GBq, iv after 30 mins; type: ADME, organism-based; settings: in vivo, 0.5 h
Kidney [52] = experiment: Biodistribution in Sprague-Dawley rat kidney at 3.7 x 10^3 to 5.55 x 10^3 GBq, iv after 60 mins; type: ADME, organism-based; settings: in vivo, 1 h
[53] = Metabolic stability in Sprague-Dawley rat plasma assessed as radioactive compound remaining after 40 mins; type: ADME, cell-free; settings: read-out: Stability
Brain [54] = experiment: Metabolic stability in Sprague-Dawley rat brain assessed as 4-(1-Methyl-4-pyridin-4-yl-1H-pyrazol-3-yl)-phenol remaining retention time administered intravenously measured after 60 mins postinjection; type: ADME, organism-based; settings: in vivo, iv
[55] = Biodistribution in Sprague-Dawley rat hippocampus at 3.7 x 10^3 to 5.55 x 10'3 GBq, iv after 30 mins; type: ADME, organism-based; settings: in vivo, 0.5 h
Lung [56] = experiment: Biodistribution in Sprague-Dawley rat lung at 3.7 x 10^3 to 5.55 x 10^3 GBq, iv after 60 mins; type: ADME, organism-based; settings: in vivo, 1 h
Brain [57] = experiment: Metabolic stability in Sprague-Dawley rat brain assessed as compound remaining retention time administered intravenously measured after 60 mins postinjection; type: ADME, organism-based; settings: in vivo, iv, 1 h
Liver [58] = experiment: Biodistribution in Sprague-Dawley rat liver at 3.7 x 10^3 to 5.55 x 10'3 GBq, iv after 30 mins; type: ADME, organism-based; settings: in vivo, 0.5 h
[59] = Metabolic stability in Sprague-Dawley rat brain assessed as radioactive compound remaining after 40 mins; type: ADME, tissue-based; settings: read-out: Stability

SMILES: [11CH3]n1cc(-c2ccncc2)c(-c2ccc(OCc3ccc4ccccc4n3)cc2)n1
- Drug uptake (Blood [1]): 0.047 % ID/g
- Activity (Plasma [2]): 35.19%
- Drug uptake (Liver [3]): 2.766 % ID/g
- Drug uptake (Cortex [4]): 0.044 % ID/g
- Drug uptake (Testes [5]): 0.068 % ID/g
- Drug uptake (Heart [6]): 0.068 % ID/g
- remaining at 2 min [7]: 98.7%
- Drug uptake (Cortex [8]): 0.044 % ID/g
- Activity (Brain [9]): 11.47%
- remaining at 20 min [10]: 74.2%
- Time (Plasma [11]): 3 min
- Drug uptake [12]: 0.075 % ID/g
- Drug uptake (Muscle tissue [13]): 0.093 % ID/g
- Drug uptake (Cortex [14]): 0.133 % ID/g
- Drug uptake [15]: 0.124 % ID/g
- Drug uptake (Cerebellum [16]): 0.035 % ID/g
- Drug uptake (Cerebellum [17]): 0.036 % ID/g
- Drug uptake [18]: 0.051 % ID/g
- Activity (Brain [19]): 15.87%
- Drug uptake (Kidney [20]): 0.366 % ID/g
- Drug uptake (Testes [21]): 0.098 % ID/g
- Drug uptake (Heart [22]): 0.102 % ID/g
- Time (Plasma [23]): 3 min
- Drug uptake (Heart [24]): 0.264 % ID/g
- Drug uptake [25]: 0.1 % ID/g
- Drug uptake (Lung [26]): 0.155 % ID/g
- remaining at 1 h [27]: 49.3%
- Drug uptake (Testes [28]): 0.16 % ID/g
- Drug uptake (Striatum [29]): 0.236 % ID/g
- Drug uptake (Blood [30]): 0.065 % ID/g
- Drug uptake (Brain [31]): 0.066 % ID/g
- remaining at 20 min [32]: 94.8%
- remaining at 1 h [33]: 78.6%
- Activity (Brain [34]): 3.45%
- Drug uptake (Kidney [35]): 1.229 % ID/g
- Activity (Plasma [36]): 1.23%
- Drug uptake (Brain [37]): 0.056 % ID/g
- remaining at 2 min [38]: 98.3%
- Drug uptake (Lung [39]): 0.317 % ID/g
- Drug uptake (Striatum [40]): 0.3 % ID/g
- Drug uptake (Brain [41]): 0.162 % ID/g
- Drug uptake (Muscle tissue [42]): 0.039 % ID/g
- Drug uptake (Striatum [43]): 0.164 % ID/g
- Drug uptake [44]: 0.169 % ID/g
- Drug uptake (Blood [45]): 0.123 % ID/g
- Activity (Brain [46]): 1.03%
- Activity (Plasma [47]): 19.13%
- Activity (Plasma [48]): 40.72%
- Drug uptake (Cerebellum [49]): 0.133 % ID/g
- Drug uptake (Liver [50]): 3.364 % ID/g
- Drug uptake (Muscle tissue [51]): 0.059 % ID/g
- Drug uptake (Kidney [52]): 0.314 % ID/g
- remaining at 40 min [53]: 52.6%
- Time (Brain [54]): 10.5 min
- Drug uptake [55]: 0.05 % ID/g
- Drug uptake (Lung [56]): 0.09 % ID/g
- Time (Brain [57]): 10.5 min
- Drug uptake (Liver [58]): 3.395 % ID/g
- remaining at 40 min [59]: 84.7%
